Laboratory results from patent US20150051203A1, “TRIAZOLE DERIVATIVES AS HSP90 INHIBITORS” (Synta Pharmaceuticals Corp., priority 2012, published 2015).
Where two headings read alike, the source gives them in different places.

Tests used:
Her2 = assay: Degradation of Her2 in BT-474 cells (Western blot, Method 1); assay type: cell-based, Human; settings: 0.5 μM, overnight
Protocol: BT-474 cells are treated with 0.5 μM, 2 μM, or 5 μM of 17AAG (a positive control) or 0.5 μM, 2 μM, or 5 μM of a compound of the invention overnight in DMEM medium. After treatment, each cytoplasmic sample is prepared from 1×10^6 cells by incubation of cell lysis buffer (#9803, Cell Signaling Technology) on ice for 10 minutes. The resulting supernatant used as the cytosol fractions is dissolved with sample buffer for SDS-PAGE and run on a SDS-PAGE gel, blotted onto a nitrocellulose membrane by using semi-dry transfer. Non-specific binding to nitrocellulose is blocked with 5% skim milk in TBS with 0.5% Tween at room temperature for 1 hour, then probed with anti-Her2/ErB2 mAb (rabbit IgG, #2242, Cell Signaling) and anti-Tubulin (T9026, Sigma) as housekeeping control protein. HRP-conjugated goat anti-rabbit IgG (H+L) and HRP-conjugated horse anti-mouse IgG (H+L) are used as secondary Ab (#7074, #7076, Cell Signaling) and LumiGLO reagent, 20× Peroxide (#7003, Cell Signaling) is used for visualization.
BT-474 cells were treated with 0.5 μM, 2 μM, or 5 μM of 17AAG (a positive control) or 0.5 μM, 2 μM, or 5 μM of a compound of the invention overnight in DMEM medium. After treatment, each cytoplasmic sample was prepared from 1×10^6 cells by incubation of cell lysis buffer (#9803, Cell Signaling Technology) on ice for 10 minutes. […]

[1] = Caco-2 permeability assay; assay type: in vitro ADME; settings: human
Protocol: Caco-2 cells were cultured on 24-well plates at 0.8×10^5 cells/cm^2 for approximately 20 days until TEER values were above 300 Ωcm^2. Caco-2 monolayers were rinsed twice with transport buffer (HBSS supplemented with 10 mM HEPES and 25 mM glucose, pH 7.4) and then pre-incubated for 30 min. Test and control compound solutions were loaded into the donor (A) or acceptor (B) compartments of a 24-well plate and incubated at 37° C. with 5% CO2 and 65% humidity for 2 h. For A to B permeability, the donor wells contained test compound and corresponding acceptor wells contained transport buffer. For B to A permeability, the […]. Atenolol and propranolol were used as low and high permeability compound controls, respectively. Digoxin was used was a P-gp substrate control. Cell viability was tested with Lucifer yellow at the end of the study.
Permeability was calculated as follows:
[formula] PappA to B={0.0005376×([Drug] Acceptor/[Drug] Initial)}
PappB to A={0.0001792×([Drug] Acceptor/[Drug] Initial)}
Polarization Ratio=PappB to A/PappA to B
Polarization ratio >2 considered as an efflux (P-gp) substrate.

[2] = Exploratory small molecule PK study in rats; assay type: in vivo, male Sprague-Dawley rats; design: AUClast: unit not given here; settings: rat; for half-life: male, Sprague-Dawley, plasma, read-out: T½ (converted)
Protocol: PK studies were conducted in male Sprague-Dawley rats. One group was dosed by IV (n=2) and another group was dosed orally (n=3). Blood samples were collected in lithium heparin coated microfuge tubes at 5 (IV only), 15, 30 min, 1, 3, 4, 6, 8, 24 h post dose. Samples were then centrifuged under refrigerated conditions and plasma was collected for analysis.
A solvent-based protein precipitation procedure was used to measure the concentration of each compound in plasma and/or whole blood. Samples were analyzed with an Agilent 1100 HPLC (Santa Clara, Calif.) interfaced to an API 4000 tandem mass spectrometer (Applied Biosystems, Foster City, Calif.) using a Synergy, Hydro-RP column (4 μm, 2×50 mm; Phenomenex, Torrance, Calif.) at a flow rate of 0.5 ml/min. Mobile phase consisted of 10 mM ammonium acetate in water (A) and 10 mM ammonium acetate in 95/5 (v/v) methanol/water (B). Total run time was 5 min with the gradient elution. […] All standard curves were fit to a quadratic equation with a weighing factor of 1/(concentration)^2 to calculate compound concentrations.

Papp A→B at 2 h ([1]; A to B, 2 h, 37° C., pH 7.4) | efflux ratio at 2 h ([1]; pH 7.4, ratio >2 considered as an efflux (P-gp) substrate, read-out: Pol. Ratio B-A/A-B) | half-life ([2]; IV 5 mg/Kg, DPD) | half-life ([2]; PO 25 mg/Kg, D5W) | AUClast ([2]; IV 5 mg/Kg, DPD) | F ([2]; PO 25 mg/Kg D5W vs IV 5 mg/Kg DPD) | AUClast ([2]; PO 25 mg/Kg, D5W) | SMILES | degradation of Her2 (Her2)
– | – | – | – | – | – | – | C=CCNC1=C2C[C@@H](C)C[C@H](OC)[C@H](O)[C@@H](C)/C=C(\C)[C@H](OC(N)=O)[C@@H](OC)/C=C\C=C(/C)C(=O)NC(=CC1=O)C2=O [Compound 17AAG, 17-allylamino-17-demethoxygeldanamycin] | partial degradation of Her2
124 nm/s | 2 | 2.3 h | 10.7 h | 2.6 | 0.52% | 0.07 | CC(C)c1n[nH]c2cc(O)c(-c3nnc(C(=O)NCC(F)(F)F)n3-c3ccc(N4CCOCC4)cc3)cc12 [Compound 38, 5-(6-hydroxy-3-isopropyl-1H-indazol-5-yl)-4-(4-morpholinophenyl)-N-(2,2,2-trifluoroethyl)-4H-1,2,4-triazole-3-carboxamide] | –
